Results published in ChEMBL document CHEMBL5579900, “Enhanced Recognition Memory through Dual Modulation of Brain Carbonic Anhydrases and Cholinesterases” (J Med Chem, 2024).

Assays:
Acetylcholinesterase = Acetylcholinesterase (Electrophorus electricus, UniProt O42275)
Description: Inhibition of electric eel AChE by microplate reader based analysis

Cholinesterase = Cholinesterase (Equus caballus, UniProt P81908)
Description: Inhibition of equine serum BuChE by microplate reader based analysis

[1] = biological target: Carbonic anhydrase 1 (Homo sapiens) (UniProt P00915)
Description: Binding affinity to human carbonic anhydrase 1 assessed as activation constant by phenol red dye based stopped-flow method

[2] = biological target: Carbonic anhydrase 2 (Homo sapiens) (UniProt P00918)
Description: Binding affinity to human carbonic anhydrase 2 assessed as activation constant by phenol red dye based stopped-flow method

[3] = biological target: Carbonic anhydrase 4 (Homo sapiens) (UniProt P22748)
Description: Binding affinity to human carbonic anhydrase 4 assessed as activation constant by phenol red dye based stopped-flow method

[4] = biological target: Carbonic anhydrase 5B, mitochondrial (Homo sapiens) (UniProt Q9Y2D0)
Description: Binding affinity to human carbonic anhydrase 5B assessed as activation constant by phenol red dye based stopped-flow method

[5] = biological target: Carbonic anhydrase 7 (Homo sapiens) (UniProt P43166)
Chain of Carbonic anhydrase 7 (Homo sapiens) (P43166 whole entry): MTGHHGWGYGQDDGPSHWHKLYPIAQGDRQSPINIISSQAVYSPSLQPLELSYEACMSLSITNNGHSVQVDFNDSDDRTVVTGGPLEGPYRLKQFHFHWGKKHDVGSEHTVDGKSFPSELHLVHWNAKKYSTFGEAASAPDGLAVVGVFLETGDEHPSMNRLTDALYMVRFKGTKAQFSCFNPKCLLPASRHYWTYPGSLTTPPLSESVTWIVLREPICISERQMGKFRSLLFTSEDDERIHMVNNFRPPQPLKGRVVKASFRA
Description: Binding affinity to human carbonic anhydrase 7 assessed as activation constant by phenol red dye based stopped-flow method

Chain of Carbonic anhydrase 5B, mitochondrial (Homo sapiens) (Q9Y2D0 whole entry): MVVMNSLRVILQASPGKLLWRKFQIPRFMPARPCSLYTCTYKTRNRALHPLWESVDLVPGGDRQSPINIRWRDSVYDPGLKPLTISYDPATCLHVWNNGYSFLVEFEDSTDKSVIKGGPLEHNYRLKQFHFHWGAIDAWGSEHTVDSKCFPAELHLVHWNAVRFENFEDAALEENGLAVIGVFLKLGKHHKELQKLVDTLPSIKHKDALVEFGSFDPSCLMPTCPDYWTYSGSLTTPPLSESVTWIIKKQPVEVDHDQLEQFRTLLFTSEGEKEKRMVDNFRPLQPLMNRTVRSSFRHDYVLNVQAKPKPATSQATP
Chain of Cholinesterase (P81908 whole entry): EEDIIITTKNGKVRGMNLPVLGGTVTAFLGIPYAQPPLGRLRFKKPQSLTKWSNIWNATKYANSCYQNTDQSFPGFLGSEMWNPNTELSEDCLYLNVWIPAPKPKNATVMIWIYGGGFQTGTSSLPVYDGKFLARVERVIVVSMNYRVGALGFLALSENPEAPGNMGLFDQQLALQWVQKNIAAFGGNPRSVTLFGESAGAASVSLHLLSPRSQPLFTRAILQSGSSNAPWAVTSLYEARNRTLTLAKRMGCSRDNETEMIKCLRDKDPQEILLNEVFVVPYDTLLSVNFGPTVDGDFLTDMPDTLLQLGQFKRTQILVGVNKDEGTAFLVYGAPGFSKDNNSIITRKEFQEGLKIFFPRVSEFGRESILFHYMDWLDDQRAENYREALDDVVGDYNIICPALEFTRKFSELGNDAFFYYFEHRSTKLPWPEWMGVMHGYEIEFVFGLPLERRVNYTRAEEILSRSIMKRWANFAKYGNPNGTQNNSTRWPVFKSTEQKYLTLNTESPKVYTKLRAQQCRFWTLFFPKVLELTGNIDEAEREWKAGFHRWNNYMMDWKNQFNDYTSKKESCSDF
Chain of Carbonic anhydrase 4 (Homo sapiens) (P22748 whole entry): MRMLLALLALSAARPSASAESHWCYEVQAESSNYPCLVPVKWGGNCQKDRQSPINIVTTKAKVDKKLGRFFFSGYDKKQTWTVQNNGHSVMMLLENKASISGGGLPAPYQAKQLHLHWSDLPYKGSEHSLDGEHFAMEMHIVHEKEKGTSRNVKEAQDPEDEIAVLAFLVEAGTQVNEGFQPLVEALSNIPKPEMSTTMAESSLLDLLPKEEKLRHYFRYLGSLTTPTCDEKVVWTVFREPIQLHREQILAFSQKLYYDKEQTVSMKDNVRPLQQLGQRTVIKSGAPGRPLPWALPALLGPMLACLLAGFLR
Chain of Carbonic anhydrase 1 (Homo sapiens) (P00915 2-261 limits assumed): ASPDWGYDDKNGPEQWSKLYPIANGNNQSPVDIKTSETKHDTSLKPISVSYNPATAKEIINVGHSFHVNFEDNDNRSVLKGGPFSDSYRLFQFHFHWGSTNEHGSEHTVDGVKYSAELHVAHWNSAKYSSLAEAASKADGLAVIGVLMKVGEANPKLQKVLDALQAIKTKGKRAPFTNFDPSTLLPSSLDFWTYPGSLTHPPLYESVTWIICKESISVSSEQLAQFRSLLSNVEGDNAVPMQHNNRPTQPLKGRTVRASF
Chain of Acetylcholinesterase (O42275 whole entry): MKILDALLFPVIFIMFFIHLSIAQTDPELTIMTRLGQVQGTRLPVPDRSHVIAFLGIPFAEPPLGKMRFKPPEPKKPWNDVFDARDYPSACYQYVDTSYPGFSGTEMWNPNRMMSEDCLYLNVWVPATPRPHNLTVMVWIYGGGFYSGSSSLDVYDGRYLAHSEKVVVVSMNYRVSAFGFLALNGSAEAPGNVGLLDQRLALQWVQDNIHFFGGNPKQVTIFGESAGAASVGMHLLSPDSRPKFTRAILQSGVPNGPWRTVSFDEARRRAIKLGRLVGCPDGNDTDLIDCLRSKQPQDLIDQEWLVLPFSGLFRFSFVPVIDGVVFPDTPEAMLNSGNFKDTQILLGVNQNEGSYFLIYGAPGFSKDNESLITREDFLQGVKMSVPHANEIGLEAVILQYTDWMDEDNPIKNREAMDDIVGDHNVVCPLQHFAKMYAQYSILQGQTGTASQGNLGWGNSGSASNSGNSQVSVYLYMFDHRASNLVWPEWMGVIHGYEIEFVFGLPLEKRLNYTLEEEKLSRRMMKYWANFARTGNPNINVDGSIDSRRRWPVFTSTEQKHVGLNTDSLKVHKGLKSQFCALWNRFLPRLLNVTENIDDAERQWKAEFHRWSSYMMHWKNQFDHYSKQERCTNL

Row | SMILES | IC50 (Acetylcholinesterase) [nM] | IC50 (Cholinesterase) [nM] | KA [1] [nM] | KA [2] [nM] | KA [3] [µM] | KA [4] [µM] | KA [5] [nM] | KA ([1]; filed as activator) [nM] | KA ([2]; filed as activator) [nM] | KA ([3]; filed as activator) [µM] | KA ([4]; filed as activator) [µM] | KA ([5]; filed as activator) [nM]
1 | COC(=O)[C@H](Cc1ccc(OCCCCCCNc2c3c(nc4ccccc24)CCCC3)cc1)NC(=O)OC(C)(C)C | 16 | 0.11 | > 50000 | > 50000 | > 50 | > 50 | > 50000 | – | – | – | – | –
2 | c1ccc2c(NCCCCCNCCc3c[nH]cn3)c3c(nc2c1)CCCC3 | 60.2 | 2.4 | – | – | – | – | – | 439 | 290 | 1.28 | 0.541 | 439
3 | CC(C)(C)OC(=O)N[C@@H](Cc1c[nH]c2ccccc12)C(=O)NCCCCCNc1c2c(nc3ccccc13)CCCC2 | 108 | 0.22 | – | – | – | – | – | 1010 | 2940 | 5.67 | 7.15 | 1020
4 | CC(C)(C)OC(=O)N[C@@H](Cc1cn(C(=O)OC(C)(C)C)cn1)C(=O)NCCCCNc1c2c(nc3ccccc13)CCCC2 | 122 | 0.064 | > 50000 | – | > 50 | > 50 | > 50000 | – | 12400 | – | – | –
5 | N[C@@H](Cc1c[nH]cn1)C(=O)NCCCCNc1c2c(nc3ccccc13)CCCC2 | 101 | 4.1 | – | – | – | – | – | 972 | 199 | 0.958 | 1.47 | 391
6 | COC(=O)[C@H](CCCCNC(=O)OCc1ccccc1)NCCCCCNc1c2c(nc3ccccc13)CCCC2 | 12.4 | 0.073 | – | – | – | – | – | 3300 | 1990 | 19 | 1.4 | 1370
7 | CC(C)(C)OC(=O)N[C@@H](Cc1ccccc1)C(=O)NCCCCCCNc1c2c(nc3ccccc13)CCCC2 | 9.9 | 0.091 | > 50000 | > 50000 | > 50 | > 50 | > 50000 | – | – | – | – | –
8 | N[C@@H](Cc1c[nH]cn1)C(=O)NCCCNc1c2c(nc3ccccc13)CCCC2 | 119 | 5.8 | – | – | – | – | – | 581 | 376 | 0.619 | 1.86 | 281
9 | N[C@@H](Cc1c[nH]c2ccccc12)C(=O)NCCCCNc1c2c(nc3ccccc13)CCCC2 | 145 | 2.4 | – | – | – | – | – | 542 | 413 | 3.12 | 0.703 | 289
10 | N[C@@H](Cc1ccccc1)C(=O)NCCCCNc1c2c(nc3ccccc13)CCCC2 | 465 | 9.5 | – | – | – | – | – | 432 | 565 | 7.62 | 4.79 | 433
11 | CC(C)(C)OC(=O)N[C@@H](Cc1ccccc1)C(=O)NCCCCCNc1c2c(nc3ccccc13)CCCC2 | 243 | 0.34 | > 50000 | > 50000 | > 50 | > 50 | > 50000 | – | – | – | – | –
12 | CC(C)(C)OC(=O)N[C@@H](CCCCNC(=O)OCc1ccccc1)C(=O)NCCCNc1c2c(nc3ccccc13)CCCC2 | 419 | 0.25 | > 50000 | > 50000 | > 50 | > 50 | > 50000 | – | – | – | – | –
13 | COC(=O)[C@@H](N)Cc1ccc(OCCCCCCNc2c3c(nc4ccccc24)CCCC3)cc1 | 26.4 | 2.7 | – | – | – | – | – | 702 | 295 | 8.25 | 6.16 | 185
14 | COC(=O)[C@H](CCCCNC(=O)OCc1ccccc1)NCCCCCCNc1c2c(nc3ccccc13)CCCC2 | 35.6 | 0.29 | – | – | – | – | – | 2280 | 2410 | 20.2 | 4.61 | 2250
15 | COC(=O)[C@H](Cc1c[nH]c2ccccc12)NCCCCCNc1c2c(nc3ccccc13)CCCC2 | 37.6 | 4 | – | – | – | – | – | 606 | 840 | 2.93 | 0.471 | 482
16 | CC(C)(C)OC(=O)N[C@@H](Cc1c[nH]c2ccccc12)C(=O)NCCCNc1c2c(nc3ccccc13)CCCC2 | 426 | 0.5 | – | – | – | > 50 | – | 1920 | 5180 | 21.7 | – | 1920
17 | CC(C)(C)OC(=O)N[C@@H](Cc1ccccc1)C(=O)NCCCCNc1c2c(nc3ccccc13)CCCC2 | 158 | 0.38 | > 50000 | > 50000 | > 50 | > 50 | > 50000 | – | – | – | – | –
18 | COC(=O)[C@H](Cc1ccccc1)NCCCCCCNc1c2c(nc3ccccc13)CCCC2 | 21.8 | 0.21 | – | – | – | – | – | 992 | 312 | 1.45 | 5.17 | 397
